This passage reports TGI results from PubChem BioAssay (NCI).

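1) Cells in 96-well plates. 2) Compound, 48 h, 5 concentrations. 3) Linear interpolation between surrounding doses. 4) Unreached endpoint = highest concentration. TGI: total growth inhibition.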

Common to all, as to assay: NCI tumour cell line growth inhibition, 48 h
The subject of assay [1] is NCI-H226 lung.
The test system of assay [2] is UACC-257 melanoma.
Assay [3] has as its system SNB-75 CNS.
Assay [4] deals with 786-0 renal.
The test system of assay [5] is LOX IMVI melanoma.
In assay [6] the test system is SN12C renal.
Assay [7] deals with HCT-116 colon.
Assay [8] relates to EKVX NSCLC.
Assay [9] has as its system RXF 393 renal.
Assay [10] deals with MDA-MB-231 breast.
Assay [11] has as its system SK-OV-3 ovarian.
Assay [12] relates to UO-31 renal.
The test system of assay [13] is SK-MEL-2 melanoma.
For assay [14], the system named is SF-268 CNS.
In assay [15] the test system is SK-MEL-5 melanoma.
The test system of assay [16] is UACC-62 melanoma.
Assay [17] deals with RPMI-8226 leukemia.

`CCOC(=O)c1cc2cc(N(C(C)=O)C(C)=O)ccc2s1`: the TGI was 47.8 µM in [1]; over 100 µM in assay [2]; 39.9 µM in assay [3]; over 100 µM in [4]; over 100 µM in [5]; 71.2 µM in assay [6]. Besides, the TGI in assay [7] is over 100 µM; in assay [8], 55.9 µM; in [9] it was 42.7 µM; in assay [10], 58.7 µM; in assay [11] it was over 100 µM; in assay [12], over 100 µM. Also, the TGI in [13] was 51.6 µM; in assay [14] it was 80.6 µM; in [15] it was 65 µM; in assay [16] it was over 100 µM; in [17], 45.3 µM.
`COc1cc(NS(C)(=O)=O)ccc1NCc1cnc2ccc3[nH]c(C)ccc3c12`: the TGI was over 100 µM in assay [1]; over 100 µM in [2]; 78.4 µM in assay [3]; over 100 µM in assay [4]; over 100 µM in assay [5]; over 100 µM in assay [6]. The TGI is over 100 µM in assay [7]; over 100 µM in [8]; 39.5 µM in assay [9]; over 100 µM in [10]; over 100 µM in assay [11]; 60.6 µM in [12]. In addition, the TGI in assay [13] was 52.3 µM; in assay [14], over 100 µM; in assay [15], over 100 µM; in assay [16], over 100 µM; in assay [17], 45.2 µM.
Take `CCOC(=O)c1c(C)n(Cc2ccccc2)c(=O)c2ccccc2c(=O)c2c(=O)ccc(=O)c1=2`: the TGI in assay [1] is over 100 µM; in assay [2] it was over 100 µM; in assay [3], over 100 µM; in [4], 75.3 µM; in assay [5] it was 53.5 µM; in [6], over 100 µM. The TGI was 46.8 µM in assay [7]; over 100 µM in assay [8]; 40.7 µM in assay [9]; over 100 µM in assay [10]; over 100 µM in assay [11]; 34.7 µM in [12]. The TGI was over 100 µM in assay [13]; over 100 µM in assay [14]; over 100 µM in [15]; over 100 µM in assay [16]; 67.3 µM in [17].
Turning to `Cn1cc(C(=O)c2nccc3c2cnc2ccccc23)ccc1=O`, the TGI in assay [1], in [2], in [3], in assay [4], in assay [5] and in assay [6] was over 100 µM in each case. The TGI in assay [7] is over 100 µM; in assay [8], over 100 µM; in [9], 8.62 µM; in [10] it was over 100 µM; in assay [11] it was over 100 µM; in assay [12], over 100 µM. For the same compound, the TGI in [13], in [14], in assay [15], in [16] and in [17] was over 100 µM in each case.
As for `COc1ccc(OC)c(C2CCc3nc4nc(N)nc(N)c4cc3C2)c1` (stereo unspecified), the TGI in assay [1] was found to be 30.7 µM; in assay [2] it was 6.1 µM; in assay [3], 4.1 µM; in assay [4], 6.91 µM; in assay [5], 8.14 µM; in assay [6], 3.33 µM. The TGI was found to be 3.46 µM in [7]; 28.1 µM in assay [8]; 7.45 µM in [9]; 5.4 µM in [10]; 15.3 µM in [11]; 15.8 µM in assay [12]. The TGI was found to be 4.35 µM in [13]; 10.4 µM in assay [14]; 18.6 µM in [15]; 4.18 µM in assay [16]; 19 µM in [17].
Turning to `C[C@]12CC[C@@H]3c4ccc(O)cc4CC[C@H]3[C@@H]1C/C(=C\c1ccc([N+](=O)[O-])cc1)C2=O`, the TGI in assay [1], in assay [2], in assay [3], in assay [4], in [5] and in [6] was over 100 µM in each case. For the same compound, the TGI was over 100 µM in assay [7]; over 100 µM in assay [8]; 50.4 µM in [9]; over 100 µM in [10]; over 100 µM in [11]; over 100 µM in [12]. For the same compound, the TGI in assay [13], in assay [14], in [15], in [16] and in assay [17] was over 100 µM in each case.
Take `COc1c2c(c(OC)c3c1c(=O)c1ccccc1n3C)OCO2`: the TGI in [1], in assay [2], in [3], in assay [4], in assay [5] and in assay [6] was over 100 µM in each case. In addition, the TGI in [7] is over 91.6 µM; in assay [8], over 100 µM; in assay [9] it was over 100 µM; in assay [10] it was over 31.6 µM; in assay [11], over 100 µM; in assay [12], over 100 µM. For the same compound, the TGI is over 100 µM in [13]; over 100 µM in assay [14]; 15.7 µM in [15]; over 100 µM in [16]; over 100 µM in assay [17].
For the compound `CCOc1c2ccsc2c(OCC)c2ccsc12`, the TGI in [1] was over 100 µM; in assay [2], over 100 µM; in assay [3], over 28.3 µM; in assay [4] it was over 100 µM; in assay [5], 23 µM; in assay [6], over 100 µM. The TGI in assay [7] was over 100 µM; in assay [8] it was over 100 µM; in [9], over 24.2 µM; in assay [10], over 100 µM; in assay [11], over 100 µM; in assay [12], over 100 µM. For the same compound, the TGI in assay [13] is over 100 µM; in [14] it was over 100 µM; in assay [15], over 29.5 µM; in [16], over 100 µM; in assay [17], over 100 µM.
Take `c1ccc(N=C2c3ccccc3CN2c2ccccc2)cc1`: the TGI in assay [1], in assay [2], in [3], in assay [4], in assay [5] and in assay [6] was over 100 µM in each case. Also, the TGI in assay [7], in [8], in [9], in [10], in assay [11] and in assay [12] was over 100 µM each time. For the same compound, the TGI in [13], in assay [14], in assay [15], in [16] and in assay [17] was over 100 µM each time.
With `Clc1ccc(-c2nn3c(CCCCCCCCc4nnc5sc(-c6ccc(Cl)cc6)nn45)nnc3s2)cc1`, the TGI was over 100 µM in [1]; over 95.2 µM in [2]; 75.3 µM in assay [3]; 60 µM in [4]; 24.5 µM in assay [5]; over 63.1 µM in [6]. For the same compound, the TGI in assay [7] is 75 µM; in assay [8], over 83 µM; in assay [9] it was over 62.4 µM; in assay [10], over 100 µM; in [11] it was over 90.4 µM; in assay [12], 29.4 µM. Further, the TGI in assay [13] was over 70.5 µM; in assay [14], over 100 µM; in [15] it was 60.3 µM; in assay [16] it was over 100 µM; in assay [17], 72.2 µM.
For `C/C(=N/NC(=S)Nc1ccccc1Cl)c1ccccn1`, the TGI in [1] was determined as 1.65 µM; in assay [2], 1.07 µM; in assay [3] it was 30.5 µM; in [4] it was 15.8 µM; in assay [5], 16 µM; in assay [6], 8.4 µM. In addition, the TGI in [7] was found to be 14.2 µM; in assay [8], 7.15 µM; in [9] it was 11.6 µM; in assay [10], 17.3 µM; in assay [11], 13.7 µM; in [12], 12.3 µM. For the same compound, the TGI is 9.47 µM in assay [13]; 34.6 µM in [14]; 8.67 µM in assay [15]; 7.49 µM in [16]; 47.3 µM in assay [17].
Regarding `Cc1ccc(Nc2nc(=S)[nH]c3[nH]ncc23)cc1`, the TGI in [1], in [2], in assay [3], in assay [4], in assay [5] and in assay [6] was over 100 µM each time. Further, the TGI in [7], in assay [8], in assay [9], in [10], in [11] and in assay [12] was over 100 µM in each case. Further, the TGI in assay [13], in assay [14], in [15], in assay [16] and in [17] was over 100 µM each time.
On to `CCCCCCCCC[C@@H]1C[C@@H]2CCC3C(C(=O)OC)=C(C)NC(=N1)N32` (stereo partly specified), for which the TGI amounted to 29.2 µM in assay [1]; 27 µM in assay [2]; 19.8 µM in assay [3]; 18.9 µM in assay [4]; 26.5 µM in assay [5]; 32.5 µM in assay [6]. Moreover, the TGI in assay [7] came to 17.3 µM; in [8], 26.8 µM; in assay [9], 8.55 µM; in assay [10] it was 20 µM; in [11], 25 µM; in assay [12] it was 30.9 µM. Further, the TGI in [13] is 26.5 µM; in assay [14], 23.5 µM; in [15], 20.4 µM; in [16], 17.4 µM; in assay [17], over 100 µM.
